Reference: ChEMBL document CHEMBL1201862, “PubChem BioAssay data set” (2004)
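The compound was tested at five concentrations on cells cultured in 96-well plates, with a 48-hour exposure period. Here, GI50 denotes the concentration required for 50% inhibition of growth.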 The source made the active and inactive calls. No stated cut-off is given here; in the data, active = GI50 up to about 1.1 µM and inactive = higher.

Key:
Assay in all cases: NCI-60 cell line screen, 48 h
TK-10 = system: TK-10
CAKI-1 = system: CAKI-1
OVCAR-3 = system: OVCAR-3
RXF 393 = system: RXF 393
A549 = system: A549
SR = system: SR
PC-3 = system: PC-3
T47D = system: T47D
UACC-257 = system: UACC-257
A498 = system: A498
NCI-H23 = system: NCI-H23
U-251 = system: U-251
HCT-116 = system: HCT-116
MDA-N = system: MDA-N
OVCAR-4 = system: OVCAR-4
SNB-19 = system: SNB-19
MCF7 = system: MCF7
NCI-H522 = system: NCI-H522
HOP-92 = system: HOP-92
SF-539 = system: SF-539

| Structure (SMILES) | GI50 (TK-10) | GI50 (CAKI-1) | GI50 (OVCAR-3) | GI50 (RXF 393) | GI50 (A549) | GI50 (SR) | GI50 (PC-3) | GI50 (T47D) | GI50 (UACC-257) | GI50 (A498) | GI50 (NCI-H23) | GI50 (U-251) | GI50 (HCT-116) | GI50 (MDA-N) | GI50 (OVCAR-4) | GI50 (SNB-19) | GI50 (MCF7) | GI50 (NCI-H522) | GI50 (HOP-92) | GI50 (SF-539) |
| --- | --- | --- | --- | --- | --- | --- | --- | --- | --- | --- | --- | --- | --- | --- | --- | --- | --- | --- | --- | --- |
| COc1c(O)cc2ccnc3c2c1N(C)C=C3 | > 100 µM (inactive) | > 100 µM (inactive) | > 100 µM (inactive) | > 100 µM (inactive) | > 100 µM (inactive) | 10.1 µM (inactive) | > 100 µM (inactive) | > 100 µM (inactive) | > 100 µM (inactive) | > 100 µM (inactive) | > 100 µM (inactive) | > 100 µM (inactive) | 67.3 µM (inactive) | > 100 µM (inactive) | > 100 µM (inactive) | > 100 µM (inactive) | > 100 µM (inactive) |  |  |  |
| CCOC(=O)C1C[C@H]2CO[C@H](c3ccccc3)N2C1=O (some centres not stated) | > 100 µM (inactive) | > 100 µM (inactive) | > 100 µM (inactive) | > 100 µM (inactive) | > 100 µM (inactive) | > 100 µM (inactive) | > 100 µM (inactive) | > 100 µM (inactive) | > 100 µM (inactive) |  | > 100 µM (inactive) | > 100 µM (inactive) | > 100 µM (inactive) | > 100 µM (inactive) | > 100 µM (inactive) | > 100 µM (inactive) | > 100 µM (inactive) | > 100 µM (inactive) | > 100 µM (inactive) | > 100 µM (inactive) |
| C=CCOc1ccc(C2c3c(n[nH]c3O)CC(O)(OCC)C2C(=O)OCC)cc1OC (configuration not stated) | > 100 µM (inactive) | > 100 µM (inactive) | > 100 µM (inactive) |  | > 100 µM (inactive) |  | > 100 µM (inactive) | > 100 µM (inactive) | > 100 µM (inactive) | > 100 µM (inactive) | > 100 µM (inactive) | > 100 µM (inactive) | > 100 µM (inactive) | > 100 µM (inactive) | > 100 µM (inactive) | > 100 µM (inactive) | > 100 µM (inactive) | > 100 µM (inactive) | > 100 µM (inactive) | > 100 µM (inactive) |
| COc1ccc(/C=N/Nc2nc3ccccc3c(=O)n2-c2ccccc2)cc1 | > 100 µM (inactive) | > 100 µM (inactive) | > 100 µM (inactive) | > 100 µM (inactive) | > 100 µM (inactive) | 60.7 µM (inactive) | > 100 µM (inactive) | > 100 µM (inactive) | > 100 µM (inactive) | > 100 µM (inactive) | 55.6 µM (inactive) | > 100 µM (inactive) | > 100 µM (inactive) | > 100 µM (inactive) | > 100 µM (inactive) | > 100 µM (inactive) | 3.61 µM (inactive) | > 100 µM (inactive) |  | > 100 µM (inactive) |
| c1ccc2c[n+](CCCC[n+]3ccc4ccccc4c3)ccc2c1 | > 100 µM (inactive) | > 100 µM (inactive) | > 100 µM (inactive) | > 100 µM (inactive) | 1.13 µM (inactive) | > 100 µM (inactive) | > 100 µM (inactive) | > 100 µM (inactive) | > 100 µM (inactive) | > 100 µM (inactive) | > 100 µM (inactive) | > 100 µM (inactive) | > 100 µM (inactive) | > 100 µM (inactive) | > 100 µM (inactive) | 21.8 µM (inactive) | > 100 µM (inactive) |  |  | > 100 µM (inactive) |
| COC(=O)c1ccccc1C1CN=NC12Cc1c(C)cc(C)cc1C2=O (configuration not stated) | > 100 µM (inactive) | > 100 µM (inactive) | > 100 µM (inactive) | > 100 µM (inactive) | > 100 µM (inactive) |  | > 100 µM (inactive) | > 100 µM (inactive) | > 100 µM (inactive) | > 100 µM (inactive) | > 100 µM (inactive) | > 100 µM (inactive) | > 100 µM (inactive) | > 100 µM (inactive) | > 100 µM (inactive) | > 100 µM (inactive) | > 100 µM (inactive) | 8.34 µM (inactive) | > 100 µM (inactive) | > 100 µM (inactive) |
| O=C(O)CN(CC(=O)O)Cc1ccn(-c2cccc(-n3ccc(CN(CC(=O)O)CC(=O)O)n3)n2)n1 | > 100 µM (inactive) | > 100 µM (inactive) | > 100 µM (inactive) | > 100 µM (inactive) | 17.4 µM (inactive) | > 100 µM (inactive) | > 100 µM (inactive) | > 100 µM (inactive) | > 100 µM (inactive) |  | < 0.01 µM (active) | 21.1 µM (inactive) | > 100 µM (inactive) | > 100 µM (inactive) |  | > 100 µM (inactive) | > 100 µM (inactive) | > 100 µM (inactive) | > 100 µM (inactive) | > 100 µM (inactive) |
| N#CCC(=O)Nn1c(CC#N)nnc1Cc1ccccc1 | > 100 µM (inactive) | > 100 µM (inactive) | > 100 µM (inactive) | > 100 µM (inactive) | > 100 µM (inactive) | > 100 µM (inactive) | > 100 µM (inactive) | > 100 µM (inactive) | > 100 µM (inactive) |  | > 100 µM (inactive) | > 100 µM (inactive) | > 100 µM (inactive) | > 100 µM (inactive) |  | > 100 µM (inactive) | > 100 µM (inactive) | > 100 µM (inactive) | > 100 µM (inactive) | > 100 µM (inactive) |
| CC(=O)N1CC(C)(C)c2c(C)c(O)c(C)c(C)c21 | > 100 µM (inactive) |  | > 100 µM (inactive) | > 100 µM (inactive) | > 100 µM (inactive) |  | > 100 µM (inactive) | > 100 µM (inactive) | > 100 µM (inactive) | > 100 µM (inactive) | > 100 µM (inactive) | > 100 µM (inactive) | > 100 µM (inactive) | > 100 µM (inactive) | > 100 µM (inactive) | > 100 µM (inactive) | > 100 µM (inactive) | > 100 µM (inactive) | > 100 µM (inactive) | > 100 µM (inactive) |
| Nc1nc(N)c2c(n1)NC(c1ccccc1)CC(/C=C/c1ccc(Cl)cc1)=N2 (configuration not stated) | 2.56 µM (inactive) | 7.87 µM (inactive) | 5.62 µM (inactive) | 3.62 µM (inactive) | 12.2 µM (inactive) |  | 6.59 µM (inactive) | 5.83 µM (inactive) | 2.25 µM (inactive) | 15.4 µM (inactive) | 3.69 µM (inactive) | 5.87 µM (inactive) | 1.99 µM (inactive) | 5.55 µM (inactive) | 6.41 µM (inactive) | 12.8 µM (inactive) | 3.48 µM (inactive) | 1.76 µM (inactive) | 3.94 µM (inactive) | 15.5 µM (inactive) |
| O=C1c2[nH]c3ccccc3c2CCN2CCCCC12 (configuration not stated) | 27 µM (inactive) | 38.2 µM (inactive) | 19.7 µM (inactive) | 24.9 µM (inactive) | 24.9 µM (inactive) |  | 18.8 µM (inactive) | 25.7 µM (inactive) | 17.7 µM (inactive) | 29.6 µM (inactive) | 21.8 µM (inactive) | 18.8 µM (inactive) | 23.6 µM (inactive) | 19.1 µM (inactive) | 27.5 µM (inactive) | 24.9 µM (inactive) | 32.1 µM (inactive) | 20.3 µM (inactive) | 18.5 µM (inactive) | 21.1 µM (inactive) |
| CCCCCC(/C=N/Nc1ccccc1)C(O)(C(F)(F)F)C(F)(F)F (configuration not stated) |  | > 100 µM (inactive) | > 100 µM (inactive) | > 100 µM (inactive) | > 100 µM (inactive) | > 100 µM (inactive) | > 100 µM (inactive) | > 100 µM (inactive) | > 100 µM (inactive) | > 100 µM (inactive) | > 100 µM (inactive) | > 100 µM (inactive) | > 100 µM (inactive) | > 100 µM (inactive) | > 100 µM (inactive) | > 100 µM (inactive) |  | > 100 µM (inactive) | > 100 µM (inactive) | > 100 µM (inactive) |
| CN1CCc2c(sc3nc(Nc4ccccc4)n(N)c(=O)c23)C1 | > 100 µM (inactive) | > 100 µM (inactive) | > 100 µM (inactive) | 63.4 µM (inactive) | > 100 µM (inactive) |  | > 100 µM (inactive) | > 100 µM (inactive) | 60.4 µM (inactive) | > 100 µM (inactive) | > 100 µM (inactive) |  | 72.3 µM (inactive) | > 100 µM (inactive) |  | > 100 µM (inactive) | 51.4 µM (inactive) |  |  | > 100 µM (inactive) |
| CC(C)N(C(C)C)S(=O)(=O)CC12CCC(C/C1=N\O)C2 (configuration not stated) | > 100 µM (inactive) | > 100 µM (inactive) | > 100 µM (inactive) | > 100 µM (inactive) | > 100 µM (inactive) | > 100 µM (inactive) | > 100 µM (inactive) | > 100 µM (inactive) | > 100 µM (inactive) |  | > 100 µM (inactive) | > 100 µM (inactive) | > 100 µM (inactive) | > 100 µM (inactive) | > 100 µM (inactive) | > 100 µM (inactive) | > 100 µM (inactive) | > 100 µM (inactive) |  | > 100 µM (inactive) |
| CC1(C)[C@@H]2CC[C@@]1(C)[C@H](O)[C@@H]2SCc1ccccc1 | 22.6 µM (inactive) | 25.1 µM (inactive) | 17.1 µM (inactive) | 18.5 µM (inactive) | 19 µM (inactive) | 28.8 µM (inactive) | 20.8 µM (inactive) | 24 µM (inactive) | 14 µM (inactive) | < 0.01 µM (active) | 14.1 µM (inactive) | 17.1 µM (inactive) | 17.2 µM (inactive) | 18.9 µM (inactive) | 12.9 µM (inactive) | 16.8 µM (inactive) |  | 15.2 µM (inactive) | 13.7 µM (inactive) | 17.8 µM (inactive) |
